Results reported in PubChem BioAssay AID1963832 (Molecular Pharmacology Branch, DTP, NCI, 2024).
pIC50: −log10 of the molar value.

System: 885724-159-R-J1-PDC complex spheroid viability
Assay: Anticancer human tumor 885724-159-R-J1-PDC patient-derived pancreatic adenocarcinoma cell line growth inhibition [POLQ]
Conditions: for pIC50: curve of first compound; for viability, T/C: stronger effect = lower value; active means viability on the fitted dose curve at most 10% of control; inactive means the rest
Experimental: Multicellular complex tumor spheroid response to Polymerase (POL) inhibitors (novobiocin, ART-558, RP6685) in combination with a variety of drugs and investigational agents in selected tumor cell lines
The POL inhibitors (novobiocin, ART-558, and RP6685) were evaluated both individually and in combination with standard of care and investigational anticancer small molecules within a complex spheroid model of solid tumors. . Complex spheroids include a stromal component modeled by human endothelial cells (HUVEC) and fibroblasts modeled by human mesenchymal stem cells (MSCs). The concentration ranges selected for each drug and investigational agent were based upon clinically achievable concentrations if the clinical Cmax of the agent was known.
Compounds. The drugs and investigational agents: novobiocin (NSC847541), ART-558 (NSC835418), RP-6685 (NSC848927), peposertib (NSC802822), ceralasertib (NSC780249), elimusertib (NSC800525), camonsertib (NSC841442), AZD-1390 (NSC803789), olaparib (NSC753686), talazoparib (NSC767125), rucaparib (NSC756644), sotorasib (NSC818433), MRTX-1133 (NSC836407), SN-38 (NSC673596), topotecan (NSC609699), epotoside (NSC141540), doxorubicin (NSC123127), gemcitabine (NSC613327), 5-fluorouracil (NSC19893), paclitaxel (NSC125973), vemurafenib (NSC761431), MSA-2 (NSC828583), SN-011 (NSC837082), adavosertib (NSC754352), prexasertib (NSC758257), carboplatin (NSC241240) and oxaliplatin (NSC266046), were obtained from the National Cancer Institute (NCI) Developmental Therapeutics Program Chemical Repository (21). The FDA-approved anticancer drug set is available from the Developmental Therapeutics Program at https://dtp.cancer.gov/organization/dscb/obtaining/. […] The stock solutions were prepared in dimethyl sulfoxide (DMSO, Sigma-Aldrich, St. Louis, MO, cat. D2650), except for the platinum compounds which were prepared in saline (Quality Biological, Gaithersburg, MD, cat. 114-055-101), at 800-fold the tested concentration and stored at -70 degrees C prior to their use. All drugs and investigational agents were tested over a range starting from a high concentration at or near the clinical Cmax and decreasing in half-log increments. If the clinical Cmax for an agent had not been determined, the highest concentration tested was 10 microM, except for SN-38, which was tested at a high concentration of 1 microM.
Cell Culture. All cells were maintained in an incubator at 37 degrees C and 5% CO2 with 95% humidity. The PDC lines were cultured according to standard operating procedures established by the NCI PDMR (https://pdmr.cancer.gov). Table 3 of the manuscript, lists the cell lines along with the number of the three cell types plated to form the mct-spheroids and media for tumor cell growth. After thawing, all PDC lines, except 997537-175-T-J1-PDC and 415267-285-R-J2-PDC, were cultured in Matrigel-coated flasks prepared with a working solution of 1X Ham's F-12 nutrient mix, without supplementation (Thermo Fisher Scientific, cat. 11765054), 100 U/mL penicillin-streptomycin (Thermo Fisher Scientific, cat. 15140122), and 2.5% Matrigel (Corning Inc., Corning, NY, cat. 354248) for the first three passages. The two PDC lines 997537-175-T-J1-PDC and 415267-285-R-J2-PDC were cultured on uncoated flasks. The 857933-349-R-J2-PDC line was cultured in 6C/Colon 1B media containing advanced DMEM/F-12 (Thermo Fisher Scientific, cat. 12634028), 10 mM HEPES (Thermo Fisher Scientific, cat. 15630080), 1X GlutaMAX supplement (Thermo Fisher Scientific, cat. 35050061), 0.1 mg/mL primocin (InvivoGen, San Diego, CA, cat. ant-pm-2), 10% defined fetal bovine serum, heat inactivated (HyClone Laboratories Inc., Logan, UT, cat. SH30070.03HI), 50% L-WRN conditioned media (ATCC, cat. CRL-3276), 1.25 mM N-Acetyl-L-cysteine (Sigma-Aldrich, cat. A9165), 10 mM nicotinamide (Sigma-Aldrich, cat. N0636), 1X B-27 supplement (Thermo Fisher Scientific, cat. 17504044), 1X N-2 supplement (Thermo Fisher Scientific, cat. […]

[1] = second compound 0.0316 µM, first compound 0.0316 µM
[2] = second compound 0.0316 µM, first compound 0.1 µM
[3] = second compound 0.0316 µM, first compound 0.316 µM
[4] = second compound 0.0316 µM, first compound 1 µM
[5] = second compound 0.0316 µM, first compound 3.16 µM
[6] = second compound 0.0316 µM, first compound 10 µM
[7] = second compound 0.1 µM, first compound 0.0316 µM
[8] = second compound 0.1 µM, first compound 0.1 µM
[9] = second compound 0.1 µM, first compound 0.316 µM
[10] = second compound 0.1 µM, first compound 1 µM
[11] = second compound 0.1 µM, first compound 3.16 µM
[12] = second compound 0.1 µM, first compound 10 µM
[13] = second compound 0.316 µM, first compound 0.0316 µM
[14] = second compound 0.316 µM, first compound 0.1 µM
[15] = second compound 0.316 µM, first compound 0.316 µM
[16] = second compound 0.316 µM, first compound 1 µM
[17] = second compound 0.316 µM, first compound 3.16 µM
[18] = second compound 0.316 µM, first compound 10 µM
[19] = second compound 1 µM, first compound 0.0316 µM
[20] = second compound 1 µM, first compound 0.1 µM
[21] = second compound 1 µM, first compound 0.316 µM
[22] = second compound 1 µM, first compound 1 µM
[23] = second compound 1 µM, first compound 3.16 µM
[24] = second compound 1 µM, first compound 10 µM
[25] = second compound 3.16 µM, first compound 0.0316 µM
[26] = second compound 3.16 µM, first compound 0.1 µM
[27] = second compound 3.16 µM, first compound 0.316 µM
[28] = second compound 3.16 µM, first compound 1 µM
[29] = second compound 3.16 µM, first compound 3.16 µM
[30] = second compound 3.16 µM, first compound 10 µM
[31] = second compound 10 µM, first compound 0.0316 µM
[32] = second compound 10 µM, first compound 0.1 µM
[33] = second compound 10 µM, first compound 0.316 µM
[34] = second compound 10 µM, first compound 1 µM
[35] = second compound 10 µM, first compound 3.16 µM
[36] = second compound 10 µM, first compound 10 µM
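Further: spheroids exposed to compounds for 7 days.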

CC(=O)O[C@H]1C(=O)[C@@]2(C)[C@H]([C@H](OC(=O)c3ccccc3)[C@]3(O)C[C@H](OC(=O)[C@H](O)[C@@H](NC(=O)c4ccccc4)c4ccccc4)C(C)=C1C3(C)C)[C@]1(OC(C)=O)CO[C@@H]1C[C@@H]2O + COC1C(OC(N)=O)C(O)C(Oc2ccc3c(O)c(NC(=O)c4ccc(O)c(CC=C(C)C)c4)c(=O)oc3c2C)OC1(C)C
< 5.52: pIC50 (second compound 0.0316 µM) | pIC50 (second compound 0.1 µM) | pIC50 (second compound 0.316 µM) | pIC50 (second compound 1 µM) | pIC50 (second compound 3.16 µM) | pIC50 (second compound 10 µM)
inactive: viability, T/C (second compound 0.0316 µM, first compound 0.00949 µM) 57.8% | viability, T/C (second compound 0.0316 µM, first compound 0.03 µM) 60.2% | viability, T/C (second compound 0.0316 µM, first compound 0.0949 µM) 55.6% | viability, T/C (second compound 0.0316 µM, first compound 0.3 µM) 59% | viability, T/C (second compound 0.0316 µM, first compound 0.949 µM) 59.9% | viability, T/C (second compound 0.0316 µM, first compound 3 µM) 61.6% | viability, T/C (second compound 0.1 µM, first compound 0.00949 µM) 66.1% | viability, T/C (second compound 0.1 µM, first compound 0.03 µM) 59.6% | viability, T/C (second compound 0.1 µM, first compound 0.0949 µM) 56.8% | viability, T/C (second compound 0.1 µM, first compound 0.3 µM) 66.1% | viability, T/C (second compound 0.1 µM, first compound 0.949 µM) 64.5% | viability, T/C (second compound 0.1 µM, first compound 3 µM) 56.8% | viability, T/C (second compound 0.316 µM, first compound 0.00949 µM) 64% | viability, T/C (second compound 0.316 µM, first compound 0.03 µM) 54.9% | viability, T/C (second compound 0.316 µM, first compound 0.0949 µM) 55.7% | viability, T/C (second compound 0.316 µM, first compound 0.3 µM) 56.6% | viability, T/C (second compound 0.316 µM, first compound 0.949 µM) 61.1% | viability, T/C (second compound 0.316 µM, first compound 3 µM) 68.4% | viability, T/C (second compound 1 µM, first compound 0.00949 µM) 65.4% | viability, T/C (second compound 1 µM, first compound 0.03 µM) 60% | viability, T/C (second compound 1 µM, first compound 0.0949 µM) 57.9% | viability, T/C (second compound 1 µM, first compound 0.3 µM) 62.3% | viability, T/C (second compound 1 µM, first compound 0.949 µM) 53.1% | viability, T/C (second compound 1 µM, first compound 3 µM) 56% | viability, T/C (second compound 3.16 µM, first compound 0.00949 µM) 64.3% | viability, T/C (second compound 3.16 µM, first compound 0.03 µM) 57.6% | viability, T/C (second compound 3.16 µM, first compound 0.0949 µM) 52.9% | viability, T/C (second compound 3.16 µM, first compound 0.3 µM) 56.3% | viability, T/C (second compound 3.16 µM, first compound 0.949 µM) 60.3% | viability, T/C (second compound 3.16 µM, first compound 3 µM) 66.5% | viability, T/C (second compound 10 µM, first compound 0.00949 µM) 60.6% | viability, T/C (second compound 10 µM, first compound 0.03 µM) 51.5% | viability, T/C (second compound 10 µM, first compound 0.0949 µM) 59.3% | viability, T/C (second compound 10 µM, first compound 0.3 µM) 56.5% | viability, T/C (second compound 10 µM, first compound 0.949 µM) 67.2% | viability, T/C (second compound 10 µM, first compound 3 µM) 67.4%

COc1cc(C2c3cc4c(cc3C(OC3OC5COC(C)OC5C(O)C3O)C3COC(=O)C23)OCO4)cc(OC)c1O (stereo unspecified) + COC1C(OC(N)=O)C(O)C(Oc2ccc3c(O)c(NC(=O)c4ccc(O)c(CC=C(C)C)c4)c(=O)oc3c2C)OC1(C)C
5.23: pIC50 (second compound 3.16 µM)
5.27: pIC50 (second compound 0.0316 µM)
5.34: pIC50 (second compound 1 µM)
inactive: viability, T/C [1] 96.7% | viability, T/C [2] 81.8% | viability, T/C [3] 67.8% | viability, T/C [4] 61.6% | viability, T/C [5] 56.2% | viability, T/C [6] 44.4% | viability, T/C [7] 93.7% | viability, T/C [8] 85.5% | viability, T/C [9] 72% | viability, T/C [10] 59.2% | viability, T/C [11] 53.8% | viability, T/C [12] 43.1% | viability, T/C [13] 92% | viability, T/C [14] 84.4% | viability, T/C [15] 75.7% | viability, T/C [16] 59.8% | viability, T/C [17] 54% | viability, T/C [18] 41.9% | viability, T/C [19] 100% | viability, T/C [20] 87.5% | viability, T/C [21] 71.3% | viability, T/C [22] 58.9% | viability, T/C [23] 58.2% | viability, T/C [24] 42.3% | viability, T/C [25] 92.5% | viability, T/C [26] 81.4% | viability, T/C [27] 69.8% | viability, T/C [28] 64.1% | viability, T/C [29] 53.5% | viability, T/C [30] 46.5% | viability, T/C [31] 90.6% | viability, T/C [32] 80% | viability, T/C [33] 64.7% | viability, T/C [34] 60.5% | viability, T/C [35] 54.4% | viability, T/C [36] 42.1%
5.42: pIC50 (second compound 10 µM)
5.41: pIC50 (second compound 0.1 µM)
5.40: pIC50 (second compound 0.316 µM)

COc1cccc2c1C(=O)c1c(O)c3c(c(O)c1C2=O)CC(O)(C(=O)CO)CC3OC1CC(N)C(O)C(C)O1 (stereo unspecified) + COC1C(OC(N)=O)C(O)C(Oc2ccc3c(O)c(NC(=O)c4ccc(O)c(CC=C(C)C)c4)c(=O)oc3c2C)OC1(C)C
6.72: pIC50 (second compound 1 µM)
6.69: pIC50 (second compound 0.1 µM)
6.71: pIC50 (second compound 3.16 µM) | pIC50 (second compound 10 µM)
active: viability, T/C [4] 11.6% | viability, T/C [5] 6% | viability, T/C [6] 7.47% | viability, T/C [10] 10.3% | viability, T/C [11] 5.36% | viability, T/C [12] 7.37% | viability, T/C [16] 9.53% | viability, T/C [17] 5.31% | viability, T/C [18] 7.84% | viability, T/C [22] 10.3% | viability, T/C [23] 5.98% | viability, T/C [24] 7.87% | viability, T/C [28] 7.45% | viability, T/C [29] 6% | viability, T/C [30] 7.69% | viability, T/C [34] 7.9% | viability, T/C [35] 6.39% | viability, T/C [36] 7.8%
inactive: viability, T/C [1] 71.6% | viability, T/C [2] 91.5% | viability, T/C [3] 31.9% | viability, T/C [7] 71% | viability, T/C [8] 89.4% | viability, T/C [9] 31.5% | viability, T/C [13] 71% | viability, T/C [14] 93.2% | viability, T/C [15] 29% | viability, T/C [19] 65% | viability, T/C [20] 90.5% | viability, T/C [21] 28.9% | viability, T/C [25] 69.5% | viability, T/C [26] 92% | viability, T/C [27] 28.7% | viability, T/C [31] 64.2% | viability, T/C [32] 85.7% | viability, T/C [33] 32.2%
6.70: pIC50 (second compound 0.316 µM)
6.68: pIC50 (second compound 0.0316 µM)
